From patent EP0559571A1, “Thiazolidine-2,4-dione derivatives, process for their preparation and pharmaceutical compositions containing them” (ADIR ET COMPAGNIE, priority 1992, dated 1993)

Tests used:
souris ob/ob = experiment: Hypoglycaemic activity in a non-insulin-dependent diabetes (NIDDM) model, ob/ob mouse; assay type: in vivo; conditions: ob/ob mice; for minimal effective dose: read-out: DMA (dose minimum active montrant une diminution de la glycémie de 10 à 15 %); for Pouvoir hypoglycémiant: at the equi-effective dose of Table 1, 4 days oral, base 100; for Dose provoquant le même effet hypoglycémiant: oral, daily for 4 days, glycaemia at J0 and J5, dose giving the same hypoglycaemic effect (base 100)
Text: Les animaux (souris ob/ob) sont traités chaque jour, pendant 4 jours, en administrant par voie orale les composés de l'invention en suspension dans une solution à 20 % de gomme du Sénégal. Avant et après traitement, soit à J₀ et à J₅, le sang est prélevé par ponction du sinus orbital et la glycémie est déterminée. Le tableau 1 présente les doses des différents produits à administrer pour obtenir le même effet hypoglycémiant (base 100).
L'étude d'un effet-dose montre que la dose donnant une diminution de la glycémie initiale de 30 % : ED₃₀ pour le composé de l'exemple 2 est inférieure à 0,1 mg/kg alors que celle de la pioglitazone est comprise entre 5 et 10 mg/kg. La dose minimum active : DMA montrant une diminution de la glycémie de 10 à 15 % est de 0,1 mg/kg pour le composé de l'exemple 2 alors qu'elle est de 3 mg/kg pour la pioglitazone.

rats Zucker Fa/Fa mâles = experiment: Model of decreased glucose tolerance with hyperinsulinaemia and hyperlipaemia, male Zucker Fa/Fa rats; assay type: in vivo; conditions: 5 mg/kg/day oral for 10 days, blood on day 11, control = 100; for AGL (%): free fatty acids; for TG (%): triglycerides
Protocol: Les animaux (rats Zucker Fa/Fa mâles) sont traités, chaque jour, pendant 10 jours en administrant, par voie orale, les composés de l'invention à la dose de 5 mg/kg/jour en suspension dans une solution à 20 % de gomme du Sénégal. Le 11ème jour, les animaux sont sacrifiés et le sang recueilli afin de déterminer la glycémie, les triglycérides plasmatiques et l'insuline immuno-réactive. D'autre part, les animaux sont pesés avant et après traitement.
Dans ces conditions, les composés de l'invention n'ont pas d'influence sur le taux de glucose circulant mais diminuent le taux de triglycérides et d'acides gras libres plasmatiques ainsi que celui de l'insuline immuno-réactive. Cette activité est égale ou supérieure à celle d'autres dérivés de thiazolidinedione de référence.

[1] = Mus musculus, po, dose-effect study

Row | Compound | minimal effective dose (souris ob/ob; [1]) [mg/kg] | ED30 (souris ob/ob; Mus musculus, po, dose-effect study, read-out: ED30 (dose donnant une diminution de la glycémie initiale de 30 %)) [mg/kg] | Pouvoir hypoglycémiant (souris ob/ob) | Dose provoquant le même effet hypoglycémiant (souris ob/ob) | Glycémie (%) (rats Zucker Fa/Fa mâles) | Plasma insuline (%) (rats Zucker Fa/Fa mâles) | AGL (%) (rats Zucker Fa/Fa mâles) | TG (%) (rats Zucker Fa/Fa mâles)
1 | O=C1NC(=O)C(Cc2ccc3oc(Cc4ccc5ccccc5c4)cc3c2)S1 (racemic) [Exemple 2, 5-[2-(2-Naphtylméthyl)-5-benzofuranylméthyl] thiazolidine-2,4-dione] | 0.1 | < 0.1 | 100 | 5-10 mg/kg/jour | 97 | 50 | 48 | 35
2 | CCc1ccc(CCOc2ccc(CC3SC(=O)NC3=O)cc2)nc1 (stereo not drawn) [Pioglitazone] | 3 |  | 100 | 10 mg/kg/jour | 103 | 61 | 52 | 44
3 | CC1(COc2ccc(CC3SC(=O)NC3=O)cc2)CCCCC1 (stereo not drawn) [Ciglitazone] |  |  | 100 | 50-100 mg/kg/jour |  |  |  | 
4 | Cc1c(C)c2c(c(C)c1O)CCC(C)(COc1ccc(CC3SC(=O)NC3=O)cc1)O2 (stereo not drawn) [CS 045] |  |  | 100 | 150-200 mg/kg/jour |  |  |  | 
5 | O=C1NC(=O)C(Cc2ccc3c(c2)CC[C@H](Cc2ccccc2)O3)S1 (stereo partly drawn) [Englitazone] |  |  | 100 | 10-20 mg/kg/jour |  |  |  | 
